Like-named read-outs stand apart in the source and are kept apart here.

Test [1] has as its system HCT116 WT cells. In words: HCT116 WT (parent) cell line proliferation / cell viability (CellTiter-Glo, 6 days). It counts as cell-based. The following applies: 6 days treatment. How it is done: (§1) HCT116 Proliferation Activity
(§2) To assess selective anti-proliferative activity of compounds of the invention in cells that have loss expression of MTAP, an HCT-116 isogenic cell line pair was utilized where one cell line was engineered to genetically knockout both MTAP alleles. Cell viability was then assessed in both the parent HCT-116 cell line and the MTAP null cell line after 6 days of treatment with compounds of the present invention. Selective anti-proliferative activity in the MTAP null cell line indicates MTA-cooperative inhibition of PRMT5 and ability to inhibit growth of cancer cells that have loss of MTAP.
(§3) HCT116 MTAP null and WT cells were seeded in 96-well tissue culture plates in RPMI 1640 media+10% fetal bovine serum. Plates were incubated overnight at 37° C. and 5% CO2. Cells were then treated with an 8- or 9-point serial dilution of compound, using a top concentration of 1, or 10 μM, 1:3 serial dilution steps and, a DMSO-only control. Cells were incubated in the presence of drug for 6 days. Effects on cell viability were measured with the CellTiter-Glo® Luminescent Cell Viability Assay (Promega) per manufacturer's recommendation. Assay plates were read on an EnVision™ Multilabel Reader using the Ultra-Sensitive luminescence module. IC50 values were calculated with GraphPad Prism v 5.01 using symmetrical sigmoidal dose-response least squares fit with Hill slope fixed to −1 and top constrain to 100% or GeneData Screener using a 4-parameter logistic model to fit dose response curves.
(§4) Alternatively, compounds could be assayed with a 384 well plate format:
(§5) Compounds were pre-spotted into 384 well plates with a 22-point serial dilution of compound, using a top concentration of 10 or 50 μM, 1:2 serial dilution steps and, a DMSO-only control. HCT116 MTAP null and WT cells were then seeded as above and after 6 days effects on cell viability were measured with the CellTiter-Glo® Luminescent Cell Viability Assay (Promega). Assay plates were read as above and IC50 values were calculated with GeneData Screener using a 4-parameter logistic model to fit dose response curves. The reported IC50 represents the value where the curve transits 50% of control.
For orientation: Cellular ATP, detected with luciferase, serves as a proxy for viable cell number.

Test [2] relates to HCT116 MTAP null cells. In words: HCT116 MTAP null cell line proliferation / cell viability (CellTiter-Glo, 6 days). In kind it is cell-based. The settings on record: for IC50: HCT116 MTAP null cells, 6 days treatment, CellTiter-Glo cell viability, read-out: HCT-116 MTAP null IC50; for relative potency of the enantiomers (measured by IC50 in HCT116 MTAP null cell viability assay): comparison of the two enantiomers separated by SFC, used to assign (S)/(R). How it is done:
as §1, §2, §3, §4, §5

`CN(C(=O)c1cc2c3c(c(N)nc2cn1)COC3)C1COc2cc(Br)cnc21` (racemic) [Example 458, 4-amino-N-((3R)-6-bromo-2,3-dihydrofuro[3,2-b]pyridin-3-yl)-N-methyl-1,3-dihydrofuro[3,4-c][1,7]naphthyridine-8-carboxamide and 4-amino-N-((3S)-6-bromo-2,3-dihydrofuro[3,2-b]pyridin-3-yl)-N-methyl-1,3-dihydrofuro[3,4-c][1,7]naphthyridine-8-carboxamide]: the IC50 in test [1] (Homo sapiens, HCT-116, 144 h) stood at 38.5 µM; in test [2] (144 h), 5.05 µM.

In the case of `CN(C(=O)c1cc2c3c(c(N)nc2cc1F)COC3)C1COc2cc(OC(F)F)ccc21` (racemic) [Example 459, 4-amino-N-((3R)-6-(difluoromethoxy)-2,3-dihydro-1-benzofuran-3-yl)-7-fluoro-N-methyl-1,3-dihydrofuro[3,4-c]quinoline-8-carboxamide and 4-amino-N-((3S)-6-(difluoromethoxy)-2,3-dihydro-1-benzofuran-3-yl)-7-fluoro-N-methyl-1,3-dihydrofuro[3,4-c]quinoline-8-carboxamide], the IC50 in test [1] (Homo sapiens, HCT-116, 144 h) was 5.54 µM; in test [2] (144 h), 0.091 µM.

Take `CN(C(=O)c1cc2c3c(c(N)nc2cc1F)COC3)C1COc2cc(C(F)(F)F)ncc21` (racemic) [Example 460, 4-amino-7-fluoro-N-methyl-N-((3R)-6-(trifluoromethyl)-2,3-dihydrofuro[3,2-c]pyridin-3-yl)-1,3-dihydrofuro[3,4-c]quinoline-8-carboxamide and 4-amino-7-fluoro-N-methyl-N-((3S)-6-(trifluoromethyl)-2,3-dihydrofuro[3,2-c]pyridin-3-yl)-1,3-dihydrofuro[3,4-c]quinoline-8-carboxamide]: the IC50 worked out at 10.8 µM in test [1] (Homo sapiens, HCT-116, 144 h) and 0.162 µM in test [2] (144 h).

As to `CC(C)S(=O)(=O)c1ccc2c(c1)OCC2N(C)C(=O)c1cc2c3c(c(N)nc2cc1F)COC3` (racemic) [Example 464, 4-amino-7-fluoro-N-methyl-N-((3R)-6-(2-propanylsulfonyl)-2,3-dihydro-1-benzofuran-3-yl)-1,3-dihydrofuro[3,4-c]quinoline-8-carboxamide and 4-amino-7-fluoro-N-methyl-N-((3S)-6-(2-propanylsulfonyl)-2,3-dihydro-1-benzofuran-3-yl)-1,3-dihydrofuro[3,4-c]quinoline-8-carboxamide], the IC50 turned out to be 1.88 µM in test [1] (Homo sapiens, HCT-116, 144 h) and 0.022 µM in test [2] (144 h).

With `CN(C(=O)c1cc2c3c(c(N)nc2cc1F)COC3)C1COc2cc(Br)cnc21` (racemic) [Example 465, 4-amino-N-((3R)-6-bromo-2,3-dihydrofuro[3,2-b]pyridin-3-yl)-7-fluoro-N-methyl-1,3-dihydrofuro[3,4-c]quinoline-8-carboxamide and 4-amino-N-((3S)-6-bromo-2,3-dihydrofuro[3,2-b]pyridin-3-yl)-7-fluoro-N-methyl-1,3-dihydrofuro[3,4-c]quinoline-8-carboxamide], the IC50 in test [1] (Homo sapiens, HCT-116, 144 h) amounted to 32.2 µM; in test [2] (144 h) it was 1.42 µM.

For the compound `CN(C(=O)c1cc2c3c(c(N)nc2cc1Cl)COC3)C1COc2cc(C(F)(F)F)cc(F)c21` (racemic) [Example 472, 4-amino-7-chloro-N-((3R)-4-fluoro-6-(trifluoromethyl)-2,3-dihydro-1-benzofuran-3-yl)-N-methyl-1,3-dihydrofuro[3,4-c]quinoline-8-carboxamide and 4-amino-7-chloro-N-((3S)-4-fluoro-6-(trifluoromethyl)-2,3-dihydro-1-benzofuran-3-yl)-N-methyl-1,3-dihydrofuro[3,4-c]quinoline-8-carboxamide], the IC50 in test [1] (Homo sapiens, HCT-116, 144 h) was 1.15 µM; in test [2] (144 h), 0.022 µM.

Turning to `CN(C(=O)c1cc2c(cc1F)nc(N)c1cnn(C)c12)C1CSc2cc(Br)ccc21` (racemic) [Example 479, 4-amino-N-((3R)-6-bromo-2,3-dihydro-1-benzothiophen-3-yl)-7-fluoro-N,1-dimethyl-1H-pyrazolo[4,3-c]quinoline-8-carboxamide and 4-amino-N-((3S)-6-bromo-2,3-dihydro-1-benzothiophen-3-yl)-7-fluoro-N,1-dimethyl-1H-pyrazolo[4,3-c]quinoline-8-carboxamide], the IC50 was 0.71 µM in test [1] (Homo sapiens, HCT-116, 144 h) and 0.023 µM in test [2] (144 h).

Consider `CN(C(=O)c1cc2c(cc1F)nc(N)c1c2cnn1C)C1COc2cc(C#N)ccc21` (racemic) [Example 482, 4-amino-N-((3R)-6-cyano-2,3-dihydro-1-benzofuran-3-yl)-7-fluoro-N,3-dimethyl-3H-pyrazolo[3,4-c]quinoline-8-carboxamide and 4-amino-N-((3S)-6-cyano-2,3-dihydro-1-benzofuran-3-yl)-7-fluoro-N,3-dimethyl-3H-pyrazolo[3,4-c]quinoline-8-carboxamide], for which the IC50 was determined as 17.5 µM in test [1] (Homo sapiens, HCT-116, 144 h) and 0.166 µM in test [2] (144 h).

With `CN(C(=O)c1cc2c(cc1F)nc(N)c1c2cnn1C)C1CSc2cc(Br)ccc21` (racemic) [Example 484, 4-amino-N-((3R)-6-bromo-2,3-dihydro-1-benzothiophen-3-yl)-7-fluoro-N,3-dimethyl-3H-pyrazolo[3,4-c]quinoline-8-carboxamide and 4-amino-N-((3S)-6-bromo-2,3-dihydro-1-benzothiophen-3-yl)-7-fluoro-N,3-dimethyl-3H-pyrazolo[3,4-c]quinoline-8-carboxamide], the IC50 in test [1] (Homo sapiens, HCT-116, 144 h) was 5.59 µM; in test [2] (144 h) it was 0.221 µM.

For the compound `CN(C(=O)c1cc2c(cc1Cl)nc(N)c1c2cnn1C)C1CCc2nc(C(F)(F)F)ccc21` (racemic) [Example 485, 4-amino-7-chloro-N,3-dimethyl-N-((5R)-2-(trifluoromethyl)-6,7-dihydro-5H-cyclopenta[b]pyridin-5-yl)-3H-pyrazolo[3,4-c]quinoline-8-carboxamide and 4-amino-7-chloro-N,3-dimethyl-N-((5S)-2-(trifluoromethyl)-6,7-dihydro-5H-cyclopenta[b]pyridin-5-yl)-3H-pyrazolo[3,4-c]quinoline-8-carboxamide], the IC50 in test [1] (Homo sapiens, HCT-116, 144 h) turned out to be 11.7 µM; in test [2] (144 h), 0.125 µM.

With `CN(C(=O)c1ccc2nc(N)c3c(c2c1)COC3)C1COc2cc(C3=CCN(C(=O)OC(C)(C)C)CC3)ccc21` (racemic) [Example 614, 2-methyl-2-propanyl 4-((3R)-3-(((4-amino-1,3-dihydrofuro[3,4-c]quinolin-8-yl)carbonyl)(methyl)amino)-2,3-dihydro-1-benzofuran-6-yl)-3,6-dihydro-1(2H)-pyridinecarboxylate and 2-methyl-2-propanyl 4-((3S)-3-(((4-amino-1,3-dihydrofuro[3,4-c]quinolin-8-yl)carbonyl)(methyl)amino)-2,3-dihydro-1-benzofuran-6-yl)-3,6-dihydro-1(2H)-pyridinecarboxylate], the IC50 in test [1] (Homo sapiens, HCT-116, 144 h) came out at 1.36 µM; in test [2] (144 h) it was 0.127 µM.

On to `CN(C(=O)c1ccc2nc(N)c3cnn(C)c3c2c1)C1CCc2ccccc21` (racemic) [Example 681, 4-amino-N-((1R)-2,3-dihydro-1H-inden-1-yl)-N,1-dimethyl-1H-pyrazolo[4,3-c]quinoline-8-carboxamide and 4-amino-N-((1S)-2,3-dihydro-1H-inden-1-yl)-N,1-dimethyl-1H-pyrazolo[4,3-c]quinoline-8-carboxamide], for which the concentration for half-maximal inhibition (IC50) came out at 9.33 µM in test [1] (Homo sapiens, HCT-116, 144 h) and 0.53 µM in test [2] (144 h).

For `Cc1ccc2c(n1)CCC2N(C)C(=O)c1ccc2nc(N)c3cnn(C)c3c2c1` (racemic) [Example 682, 4-amino-N,1-dimethyl-N-((5R)-2-methyl-6,7-dihydro-5H-cyclopenta[b]pyridin-5-yl)-1H-pyrazolo[4,3-c]quinoline-8-carboxamide and 4-amino-N,1-dimethyl-N-((5S)-2-methyl-6,7-dihydro-5H-cyclopenta[b]pyridin-5-yl)-1H-pyrazolo[4,3-c]quinoline-8-carboxamide], the IC50 in test [1] (Homo sapiens, HCT-116, 144 h) is 21 µM; in test [2] (144 h), 0.297 µM.

For `CN(C(=O)c1ccc2nc(N)c3c(c2c1)COC3)[C@@H]1COc2cc(C(F)(F)F)ccc21` (single isomer, unassigned) [Example 317], the IC50 worked out at 1.17 µM in test [1] (Homo sapiens, HCT-116, 144 h) and 0.024 µM in test [2] (144 h). Moreover, the “relative potency of the enantiomers (measured by IC50 in HCT116 MTAP null cell viability assay)” value in test [2] was “more potent”.

Take `CN(C(=O)c1ccc2nc(N)c3c(c2c1)COC3)[C@H]1COc2cc(C(F)(F)F)ccc21` (single isomer, unassigned) [Example 318]: the IC50 was 10 µM in test [1] (Homo sapiens, HCT-116, 144 h) and 1.36 µM in test [2] (144 h). Also, in test [2], the “relative potency of the enantiomers (measured by IC50 in HCT116 MTAP null cell viability assay)” value is recorded as “less potent”.

With `CN(C(=O)c1ccc2nc(N)c3c(c2c1)COC3)[C@@H]1COc2cc([N+](=O)[O-])ccc21` (single isomer, unassigned) [Example 319], the IC50 in test [1] (read-out: HCT-116 WT IC50) was 2.21 µM; in test [2] it was 0.048 µM.

In general, IC50 refers to the concentration needed to halve the response being measured.

The record behind these values is patent US20240124442A1, “TRICYCLIC-AMIDO-BICYCLIC PRMT5 INHIBITORS” (AMGEN INC., priority 2021, published 2024).
